The values that follow come from publication PMC9962921, “Interlaboratory Study to Evaluate a Testing Protocol for the Safety of Food Packaging Coatings” (Toxics, 2023).

Read-outs that look alike come from different tables or passages of the source.

For assay [1], the target named is T1, Aryl hydrocarbon Receptor (AhR) (Rattus norvegicus, UniProt P41738).
T1 sequence (P41738 10-853): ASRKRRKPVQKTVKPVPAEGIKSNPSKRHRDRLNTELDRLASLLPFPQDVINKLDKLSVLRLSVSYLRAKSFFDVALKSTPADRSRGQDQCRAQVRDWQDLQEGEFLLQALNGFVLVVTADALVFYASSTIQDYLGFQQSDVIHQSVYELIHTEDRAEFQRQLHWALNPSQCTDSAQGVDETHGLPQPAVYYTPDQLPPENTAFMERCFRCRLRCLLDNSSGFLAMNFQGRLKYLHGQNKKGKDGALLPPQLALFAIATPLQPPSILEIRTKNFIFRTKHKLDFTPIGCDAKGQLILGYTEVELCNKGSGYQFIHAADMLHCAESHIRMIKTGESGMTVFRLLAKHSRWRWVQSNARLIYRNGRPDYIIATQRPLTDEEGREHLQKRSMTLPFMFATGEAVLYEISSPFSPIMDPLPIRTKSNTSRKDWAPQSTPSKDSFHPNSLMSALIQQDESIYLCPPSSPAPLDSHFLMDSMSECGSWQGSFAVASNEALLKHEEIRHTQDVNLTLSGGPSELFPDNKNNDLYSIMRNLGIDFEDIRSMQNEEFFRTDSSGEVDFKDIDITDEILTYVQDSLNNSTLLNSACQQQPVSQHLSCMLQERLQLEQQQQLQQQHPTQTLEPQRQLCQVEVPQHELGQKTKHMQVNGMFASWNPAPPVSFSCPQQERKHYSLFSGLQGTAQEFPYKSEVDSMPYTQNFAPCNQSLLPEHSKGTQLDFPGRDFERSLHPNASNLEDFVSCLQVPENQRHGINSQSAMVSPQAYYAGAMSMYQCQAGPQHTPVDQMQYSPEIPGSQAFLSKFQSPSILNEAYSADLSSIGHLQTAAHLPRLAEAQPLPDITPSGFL
Particulars: read-out: EC50 standard range, AhR reference compound; historical range; ref BDS BioDetection Systems historical data; cited from earlier work.

For assay [2], the target named is T1, Aryl hydrocarbon Receptor (AhR). Kind of assay: AhR (PAH) CALUX reporter gene assay. The note with it: EC50 AhR reference compound (mean). The procedure:
Briefly, cells were seeded in a 96-well plate (VWR, Dietikon, Switzerland) and incubated for 24 h at 37 °C, 5% CO2 and 100% humidity. […] In addition, a serial dilution of each of the different migrates were exposed in triplicates. After 24 h of exposure for cytotoxicity, ERα, AR and 4 h of exposure for poly-aromatic hydrocarbons (PAH) of exposure, the luciferase activity is measured with a luminometer plate reader (Mithras, Berthold, Germany).
Relative luminescence units obtained were processed as described by proprietary calculation template (BDS) (Amsterdam, The Netherlands). Receptor-binding activation was quantified as the amount of relative luciferase units (RLU) emitted after samples’ exposure. The signal is proportional to the amount of ligand-specific receptor-binding activation. After normalization to solvent control (DMSO) the percentage of relative induction (RI) or relative inhibition (RInh) was calculated for the selected nuclear receptors and the cell viability. The samples were then expressed as percentage of the maximum reference compound response. All dose responses and dilutions were performed in technical triplicates. […] For the PAH CALUX bioassay, the threshold level was set as 10%. […] Dose–response obtained between laboratories C and D was compared.

As for `c1ccc2c(c1)cc1ccc3cccc4ccc2c1c34` [Benzo(a)pyrene, benzo[a]pyrene], the half-maximal effective concentration (EC50) is 1.6 to 16 nM in assay [1], 3.3 nM in assay [2] (LAB C) and 7.2 nM in assay [2] (LAB D).
